In patent US11180452B2, “Methods and compositions for selectively inhibiting pathogenic microbes” (priority 2019, dated 2021):
≈ marks a conversion by molar mass, not a printed value. Read-outs that look alike come from different tables or passages of the source.

Legend:
[1] = test system: Staphylococcus aureus (SA); assay: MIC against pathogen Staphylococcus aureus (Table 1); type: cell-based; settings: read-out: Pathogens MIC Staphylococcus aureus (SA)
[2] = test system: Trichophyton rubrum; assay: MIC against Trichophyton rubrum; type: cell-based
[3] = test system: Roseomonas mucosa (RM); assay: MIC against skin commensal Roseomonas mucosa; type: cell-based; settings: read-out: Skin Commensals MIC Roseomonas mucosa (RM)
[4] = test system: Staphylococcus epidermidis (SE); assay: MIC against skin commensal Staphylococcus epidermidis; type: cell-based; settings: read-out: Skin Commensals MIC Staphylococcus epidermidis (SE)
[5] = HepaRG cytotoxicity, MTT assay EC50; type: cell-based, human; settings: human, NoSpin HepaRG cells
[6] = test system: NoSpin HepaRG cells; assay: HepaRG cytotoxicity, MTT assay EC50; type: cell-based, human; settings: Homo sapiens, HepaRG; cytotoxicity EC50, Table 9
[7] = test system: Bacillus subtilis; assay: Bacillus subtilis MIC / MBC; type: cell-based; settings: for MBC: Bacillus subtilis NRRL: B-571, minimum bactericidal concentration; for MIC: Bacillus subtilis
[8] = test system: Bacillus thuringiensis; type: cell-based; settings: for MIC: Bacillus thuringiensis
[9] = test system: Burkholderia thailandensis Brett et al ATCC: 700388; assay: microbe, parasite or virus in culture; type: cell-based
[10] = test system: Candida glabrata; assay: Candida glabrata MIC / MFC; type: cell-based; settings: Nakaseomyces glabratus; for MFC: read-out: MFC; for MIC: read-out: MIC
[11] = test system: Francisella tularensis subsp. Holarctica Strain LVSR NR-597; assay: microbe, parasite or virus in culture; type: cell-based
[12] = test system: N. gonorrhoeae; assay: N. gonorrhoeae MIC; type: cell-based; settings: Neisseria gonorrhoeae, strain #167
[13] = test system: C. albicans; assay: Candida albicans MIC / MFC; type: cell-based
[14] = test system: Francisella tularensis strains; assay: microbe, parasite or virus in culture; type: cell-based
[15] = test system: HepG2 cells; assay: SYTOX assay on HepG2 cells; type: cell-based; settings: staining in treated cells
[16] = MIC with and without 2-ketobutyrate (synergy); type: cell-based
[17] = test system: cell wall synthesis of S. aureus; assay: Macromolecular synthesis assay, glucosamine incorporation into cell wall; type: cell-based; settings: dose-response, FIG. 2A-2B
[18] = Trichophyton rubrum Castellani Sabouraud ATCC: 28188, read-out: MIC
[19] = Bacillus subtilis (Ehrenberg 1835) Cohn 1872 NRRL: B-571, read-out: MIC
[20] = strain B-571 (Table 4), read-out: Bacillus subtilis MIC
[21] = strain B-1985, read-out: Bacillus subtilis MIC
[22] = strain B-3665, read-out: Bacillus subtilis MIC
[23] = strain B-14322, read-out: Bacillus subtilis MIC
[24] = strain B-41090, read-out: Bacillus subtilis MIC
[25] = strain BD-594, read-out: Bacillus subtilis MIC
[26] = Bacillus thuringiensis Berliner ATCC: 10792
[27] = Bacillus thuringiensis Berliner ATCC: 10792, read-out: MIC
[28] = C. glabrata strain #584 (Table 7)
[29] = C. albicans strain #761, read-out: MFC
[30] = C. albicans strain #761, read-out: MIC
[31] = C. albicans strain #762, read-out: MFC
[32] = C. albicans strain #762, read-out: MIC
[33] = read-out: F. tularensis BSL-3 MIC, Strain 100
[34] = read-out: F. tularensis BSL-3 MIC, strain HN-63
[35] = read-out: F. tularensis BSL-3 MIC, strain LVS
[36] = read-out: F. tularensis BSL-3 MIC, strain MA00-2987
[37] = read-out: F. tularensis BSL-3 MIC, strain MO #1
[38] = read-out: F. tularensis BSL-3 MIC, strain MO #2
[39] = read-out: F. tularensis BSL-3 MIC, strain MO #3
[40] = read-out: F. tularensis BSL-3 MIC, strain OR-96
[41] = read-out: F. tularensis BSL-3 MIC, strain SCHU S4
[42] = read-out: F. tularensis BSL-3 MIC, strain WY-96
[43] = read-out: MAX, highest MIC over the Francisella tularensis strains
[44] = read-out: MIN, lowest MIC over the Francisella tularensis strains

Nc1ccccc1Sc1c[nH]c2ccc(Br)cc12 [Compound 174M, 2-((5-bromo-1H-indol-3-yl)thio)aniline]
MIC [1]: 2 µg/mL (≈ 6.27 µM) | MIC [2, 18]: 0.99 µg/mL (≈ 3.1 µM) | MIC ([2]; Trichophyton rubrum, read-out: Pathogens MIC Trichophyton rubrum (TR)): 0.9 µg/mL (≈ 2.82 µM) | MIC [3]: > 50 µg/mL | MIC [4]: 16 µg/mL (≈ 50.1 µM) | EC50 at 48 h [5]: 85 µg/mL (≈ 266 µM) | EC50 [6]: 26.5 µg/mL (≈ 83 µM) | MBC [7]: 10 µg/mL (≈ 31.3 µM) | MIC [7, 19]: 0.63 µg/mL (≈ 1.97 µM) | MIC [7, 20]: 0.625 µg/mL (≈ 1.96 µM) | MIC [7, 21]: 5 µg/mL (≈ 15.7 µM) | MIC [7, 22]: 10 µg/mL (≈ 31.3 µM) | MIC [7, 23]: 2.5 µg/mL (≈ 7.83 µM) | MIC [7, 24]: 5 µg/mL (≈ 15.7 µM) | MIC ([7]; strain B-41581, read-out: Bacillus subtilis MIC): 5 µg/mL (≈ 15.7 µM) | MIC [7, 25]: 5 µg/mL (≈ 15.7 µM) | MBC [8, 26]: 5 µg/mL (≈ 15.7 µM) | MIC ([8]; ATCC10792, […]): 0.625 µg/mL (≈ 1.96 µM) | MIC [8, 27]: 1.25 µg/mL (≈ 3.92 µM) | MIC ([8]; strain B-1596): 1.25 µg/mL (≈ 3.92 µM) | MBC [9]: > 150 µg/mL | MIC [9]: 150 µg/mL (≈ 470 µM) | MFC ([10]; C. glabrata strain #325): > 50 µg/mL | MIC ([10]; C. glabrata strain #325): 25 µg/mL (≈ 78.3 µM) | MIC [10, 28]: 12.5 µg/mL (≈ 39.2 µM) | MIC ([10]; Candida glabrata #584 (Table 2)): 12.5 µg/mL (≈ 39.2 µM) | MIC [11]: 2.5 µg/mL (≈ 7.83 µM) | MIC [12]: 1.56 µg/mL (≈ 4.89 µM) | MFC [13, 29]: 25 µg/mL (≈ 78.3 µM) | MIC [13, 30]: 12.5 µg/mL (≈ 39.2 µM) | MFC [13, 31]: 25 µg/mL (≈ 78.3 µM) | MIC [13, 32]: 3.13 µg/mL (≈ 9.8 µM) | MIC50 [14]: 4 µg/mL (≈ 12.5 µM) | MIC [14, 33]: > 8 µg/mL | MIC [14, 34]: 4 µg/mL (≈ 12.5 µM) | MIC [14, 35]: 2 µg/mL (≈ 6.27 µM) | MIC [14, 36]: 2 µg/mL (≈ 6.27 µM) | MIC [14, 37]: 2 µg/mL (≈ 6.27 µM) | MIC [14, 38]: 1.67 µg/mL (≈ 5.23 µM) | MIC [14, 39]: 4 µg/mL (≈ 12.5 µM) | MIC [14, 40]: 4 µg/mL (≈ 12.5 µM) | MIC [14, 41]: 8 µg/mL (≈ 25.1 µM) | MIC [14, 42]: 4 µg/mL (≈ 12.5 µM) | MIC [14, 43]: > 8 µg/mL | MIC [14, 44]: 1.67 µg/mL (≈ 5.23 µM) | cell membrane damage of HepG2 cells [15]: no cell membrane damage | synergistic effect with 2-ketobutyrate [16]: synergistic effect | MIC ([16]; with 200 μg/mL 2-ketobutyrate): 0.781 µg/mL | MIC ([16]; with 800 μg/mL 2-ketobutyrate): less than 0.39 μg/mL | MIC ([16]; without ketobutyrate): 3.124 µg/mL

Brc1cccc(Sc2c[nH]c3ccc(Br)cc23)c1 [Compound 174N, 5-bromo-3-((3-bromophenyl)thio)-1H-indole]
MIC [2, 18]: < 0.57 µg/mL | EC50 [6]: 29.5 µg/mL (≈ 77 µM) | MBC [7]: 10 µg/mL (≈ 26.1 µM) | MIC [7, 19]: 1.25 µg/mL (≈ 3.26 µM) | MIC [7, 20]: 1.25 µg/mL (≈ 3.26 µM) | MIC [7, 21]: 1.25 µg/mL (≈ 3.26 µM) | MIC [7, 22]: 1.25 µg/mL (≈ 3.26 µM) | MIC [7, 23]: 1.25 µg/mL (≈ 3.26 µM) | MIC [7, 24]: 2.5 µg/mL (≈ 6.53 µM) | MIC [7, 25]: 2.5 µg/mL (≈ 6.53 µM) | MBC [8, 26]: 10 µg/mL (≈ 26.1 µM) | MIC ([8]; ATCC10792, […]): 1.25 µg/mL (≈ 3.26 µM) | MIC [8, 27]: 1.25 µg/mL (≈ 3.26 µM) | MIC ([8]; strain B-1596): 2.5 µg/mL (≈ 6.53 µM) | MBC [9]: > 150 µg/mL | MIC [9]: 50 µg/mL (≈ 131 µM) | MIC ([10]; C. glabrata strain #325): > 50 µg/mL | MFC [10, 28]: 50 µg/mL (≈ 131 µM) | MFC ([10]; Candida glabrata #584 (Table 2), minimum fungicidal concentration): 50 µg/mL (≈ 131 µM) | MIC [11]: 1.25 µg/mL (≈ 3.26 µM) | MIC [12]: 1.56 µg/mL (≈ 4.07 µM) | MFC [13, 29]: > 50 µg/mL | MIC [13, 30]: 12.5 µg/mL (≈ 32.6 µM) | MFC [13, 31]: 6.25 µg/mL (≈ 16.3 µM) | MIC [13, 32]: 3.13 µg/mL (≈ 8.17 µM) | MIC50 [14]: 4 µg/mL (≈ 10.4 µM) | MIC [14, 33]: 8 µg/mL (≈ 20.9 µM) | MIC [14, 34]: 4 µg/mL (≈ 10.4 µM) | MIC [14, 35]: 6.67 µg/mL (≈ 17.4 µM) | MIC [14, 36]: 6.67 µg/mL (≈ 17.4 µM) | MIC [14, 37]: 3.33 µg/mL (≈ 8.69 µM) | MIC [14, 38]: 3.67 µg/mL (≈ 9.58 µM) | MIC [14, 39]: 4 µg/mL (≈ 10.4 µM) | MIC [14, 40]: 4 µg/mL (≈ 10.4 µM) | MIC [14, 41]: > 8 µg/mL | MIC [14, 42]: 4 µg/mL (≈ 10.4 µM) | MIC [14, 43]: > 8 µg/mL | MIC [14, 44]: 3.33 µg/mL (≈ 8.69 µM)

CN[C@H](CC(C)C)C(=O)N[C@H]1C(=O)N[C@@H](CC(N)=O)C(=O)N[C@H]2C(=O)N[C@H]3C(=O)N[C@H](C(=O)N[C@H](C(=O)O)c4cc(O)cc(O)c4-c4cc3ccc4O)[C@H](O)c3ccc(c(Cl)c3)Oc3cc2cc(c3O[C@@H]2O[C@H](CO)[C@@H](O)[C@H](O)[C@H]2O[C@H]2C[C@](C)(N)[C@H](O)[C@H](C)O2)Oc2ccc(cc2Cl)[C@H]1O [vancomycin, reference compound]
cell wall synthesis inhibition (glucosamine incorporation) [17]: increasingly inhibits glucosamine from incorporating into a cell wall
